Measurements published in US20180298405A1, “METHODS AND COMPOSITIONS TO INCREASE HUMAN SOMATIC CELL NUCLEAR TRANSFER (SCNT) EFFICIENCY BY REMOVING HISTONE H3-LYSINE TRIMETHYLATION, AND DERIVATION OF HUMAN NT-ESC” (CHILDREN'S MEDICAL CENTER CORPORATION, priority 2015, published 2018).
Values joined by “and” are separate entries in the source; they are usually repeats but may differ in a detail not shown here. Identical values can stand only once.

Test system: mouse SCNT embryos
Experiment: Preimplantation development of KDM4A-assisted mouse SCNT embryos
Format: cell-based
Conditions: cumulus donor cells, mRNA injected at 5-6 hpa; for % blast per 2-cell ± SD: blastocyst stage
Description: B6D2F1/J (BDF1) mice were produced by crossing C57BL/6J females with DBA/2J males, and were used for the collection of both oocyte and somatic nuclear donor for SCNT. All animal experiments were approved by the Institutional Animal Care and Use Committee of Harvard Medical School.
In vitro transcription was performed as described previously (Matoba et al., 2014). Briefly, full length human KDM4A/JHDM3A cDNA was cloned into a pcDNA3.1 plasmid containing poly(A)83 at the 3′ end of cloning site. The catalytic defective mutant form of KDM4A (H188A) was generated using PrimeSTAR mutagenesis kit (TAKARA # R045A). mRNA was synthesized using the mMESSAGE mMACHINE T7 Ultra Kit (Life technologies # AM1345). The synthesized mRNA was dissolved in nuclease-free water. The concentration of mRNA was measured by NanoDrop ND-1000 spectrophotometer (NanoDrop Technologies). Aliquots of mRNA were stored at −80° C. until use.
Mouse somatic cell nuclear transfer was carried out as described previously (Matoba et al., 2014). Briefly, both recipient MII oocytes and donor cumulus cells were collected from adult BDF1 female mice through superovulation by injecting 7.5 IU of pregnant mare serum gonadotropin (PMSG; Millipore #367222) and 7.5 IU of human chorionic gonadotropin (hCG; Millipore #230734). Fifteen to seventeen hours after the hCG injection, cumulus-oocyte complexes (COCs) were collected from the oviducts and treated briefly with Hepes-buffered potassium simplex-optimized medium (KSOM) containing 300 U/ml bovine testicular hyaluronidase (Calbiochem #385931) to obtain dissociated MII oocytes and cumulus cells. Isolated MII oocytes were enucleated in Hepes-buffered KSOM medium containing 7.5 jig/ml of cytochalasin B (Calbiochem #250233) by using Piezo-driven micromanipulator (Primetech # PMM-150FU). The nuclei of donor cumulus cells were injected into the enucleated oocytes. After 1 h incubation in KSOM, reconstructed SCNT oocytes were activated by incubating in Ca-free KSOM containing 2.5 mM SrCl2 and 5 jig/ml cytochalasin B for 1 h, and further cultured in KSOM with cytochalasin B for 4 h. Activated SCNT embryos were washed 5 hrs after the onset of SrCl2 treatment (hours post activation, hpa) and cultured in KSOM in a humidified atmosphere with 5% CO2 at 37.8° C. The SCNT embryos were injected with ˜10 pl of water (control), 1500 ng/μ1 wild-type or mutant (H188A) human KDM4A mRNA at 5-6 hpa by using a Piezo-driven micromanipulator. Preimplantation developmental rates were analyzed by Student's T-test.

“KDM4A mRNA: in vitro transcribed mRNA of full length human KDM4A/JHDM3A cDNA, an H3K9me3 demethylase (SEQ ID NO: 1)” was tested, and the “% 4-cell per 2-cell ± SD” value was 43.3 ± 7.6%, the “% cleaved per 1-cell ± SD” value was 93.7 ± 2.7% and the “% morula per 2-cell ± SD” value was 35.5 ± 13.5%. For the same substance, the “% blast per 2-cell ± SD” value was 90.3% and 90%, the “% blast per 2-cell ± SD” value (listed as KDM4A) was 23.7 ± 11.6% and the “% blast per 2-cell ± SD” value (listed as KDM4A WT) was 90.3 ± 0.3 %. For the same substance, the “% 4-cell per 2-cell ± SD” value (listed as KDM4A WT) was 96.8 ± 2.7 %, the “% cleaved per 1-cell ± SD” value (listed as KDM4A WT) was 97.0 ± 5.2% and the “% morula per 2-cell ± SD” value (listed as KDM4A WT) was 92.5 ± 3.6 %.
